From PubChem BioAssay (NCI)
Where “and” joins values, the source holds several entries; their conditions need not be identical. Identical values can stand only once.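 Exposure lasted 48 hours, with cells grown in 96-well plates and compounds tested at five concentrations. The concentration for 50% growth inhibition is given as GI50. TGI marks complete inhibition of growth.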 Where a SMILES comes first, the peptide text is derived from it. [ ]: non-standard residue; d: D form. The star is where a group is joined. Bn2Val = CC(C)[C@@H](C(=O)*)N(Cc1ccccc1)Cc1ccccc1; NH(3,4-diMeO-benzyl) = COc1ccc(CN*)cc1OC; NMeV = CN[C@H](C(=O)O)C(C)C; dNMeA = CN[C@H](C)C(=O)O

How the values were obtained:
Test in all cases: NCI anticancer screen, dose series, 48 h
A549 NSCLC = test system: A549 NSCLC
EKVX NSCLC = test system: EKVX NSCLC
MOLT-4 leukemia = test system: MOLT-4 leukemia
SF-268 CNS = test system: SF-268 CNS
SF-539 CNS = test system: SF-539 CNS
SN12C renal = test system: SN12C renal
SR leukemia = test system: SR leukemia
U251 CNS = test system: U251 CNS
UO-31 renal = test system: UO-31 renal
A498 renal = test system: A498 renal

| Compound | TGI (A549 NSCLC) | TGI (EKVX NSCLC) | TGI (MOLT-4 leukemia) | TGI (SF-268 CNS) | TGI (SF-539 CNS) | TGI (SN12C renal) | TGI (SR leukemia) | TGI (U251 CNS) | TGI (UO-31 renal) | GI50 (A549 NSCLC) | GI50 (EKVX NSCLC) | GI50 (MOLT-4 leukemia) | GI50 (SF-268 CNS) | GI50 (SF-539 CNS) | GI50 (SN12C renal) | GI50 (U251 CNS) | GI50 (UO-31 renal) | GI50 (A498 renal) | TGI (A498 renal) | GI50 (SR leukemia) |
| --- | --- | --- | --- | --- | --- | --- | --- | --- | --- | --- | --- | --- | --- | --- | --- | --- | --- | --- | --- | --- |
| CC(C)(C)C1=NC(S)NC(CCC(=O)Nc2ccccc2[N+](=O)[O-])=C1 (stereo not given) | > 100 µM | > 100 µM | > 100 µM | > 100 µM | > 100 µM | > 100 µM | > 100 µM | > 100 µM | > 100 µM |  |  |  |  |  |  |  |  |  |  |  |
| NNC(=O)c1cnn(-c2ccnc3c(C(F)(F)F)cccc23)c1N | > 100 µM | > 100 µM | > 100 µM | > 100 µM | > 100 µM | > 100 µM |  | > 100 µM | > 100 µM | > 100 µM | > 100 µM | > 100 µM | > 100 µM | > 100 µM | > 100 µM | > 100 µM | > 100 µM |  |  |  |
| Cc1nc2nnc(C)n2c2c1C(=O)Nc1ccccc1N2 | > 100 µM | > 100 µM | > 100 µM | > 100 µM | > 100 µM | > 100 µM | > 100 µM | > 100 µM | > 100 µM |  |  |  |  |  |  |  |  |  |  |  |
| OCc1c(-c2cccc3ccccc23)sc(-c2cccc3ccccc23)c1CO |  | 25 µM | 42.2 µM | 26.9 µM | 28.8 µM | 26.8 µM | 44 µM | 24.9 µM | 23.7 µM |  |  |  |  |  |  |  |  |  |  |  |
| CC1=C(CCCOC(=O)NCCCl)C2=C(C)C3(CC3)[C@@](C)(O)C(=O)C2=C1 | > 100 µM | > 100 µM | > 100 µM | 51.7 µM | 5.5 µM | > 100 µM |  | > 100 µM | 5.76 µM | 3.42 µM | 3.45 µM | 5.49 µM | 3.07 µM | 2.04 µM | 3.84 µM | 3.97 µM | 2.02 µM | 1.88 µM | 3.95 µM |  |
| Cc1cccc(C(C)(C)C)c1NC(=O)C(=O)Cc1nc2ccccc2s1 | > 100 µM | > 100 µM | > 100 µM | > 100 µM | > 100 µM | > 100 µM |  | > 100 µM | > 100 µM |  |  |  |  |  |  |  |  |  | > 100 µM |  |
| COc1ccc(CNC(=O)COc2ccc(/C=N/Nc3nc4ccccc4s3)cc2)cc1 | 87.6 µM | 32.5 µM | > 100 µM | 12.2 µM | 4.18 µM | > 100 µM | > 100 µM | 5.43 µM |  | 3.12 µM | 2.98 µM | > 100 µM | 3.04 µM | 1.65 µM | 2.84 µM | 1.73 µM |  |  |  | 3.05 µM |
| C[C@]12CCC(=O)C=C1CC[C@@H]1C2CC[C@]2(C)NC(=O)C(C#N)CC12 (stereo not given in full) | > 100 µM |  | > 100 µM |  | > 100 µM |  |  | > 100 µM | > 100 µM |  |  |  |  |  |  |  |  |  | > 100 µM |  |
| COc1cc([C@@H]2c3cc4c(cc3[C@@H](NC(=O)c3cccc([N+](=O)[O-])c3)C3COC(=O)[C@@H]32)OCO4)cc(OC)c1O (stereo not given in full) | 1.72 µM | 10.8 µM | > 100 µM | 10.7 µM | 1.33 µM | 1.49 µM |  | 1.26 µM | 12.2 µM |  |  |  |  |  |  |  |  |  |  |  |
| CNC(=O)c1cc(Oc2ccc3c(c2)sc2nc(-c4ccc(N)cc4)cn23)ccn1 | > 100 µM | > 100 µM | > 60.8 µM | > 100 µM | > 100 µM | > 100 µM |  | > 100 µM | > 100 µM | 0.474 µM | 0.458 µM | 0.26 µM | 0.791 µM | 0.324 µM | 0.759 µM | 0.194 µM | 0.467 µM | 0.0762 µM | 0.65 µM |  |
| Cc1cccc2c3ccc4c(c3n(C)c12)C(=O)C=CC4=O | > 100 µM | > 100 µM | > 100 µM | > 100 µM | > 100 µM | > 100 µM | > 100 µM |  | > 100 µM |  |  |  |  |  |  |  |  |  |  |  |
| O=C(/C=C(\[O-])c1ccccc1)CCCCCCC(=O)/C=C(\[O-])c1ccccc1.O=C(/C=C(\[O-])c1ccccc1)CCCCCCC(=O)/C=C(\[O-])c1ccccc1.O=C(/C=C(\[O-])c1ccccc1)CCCCCCC(=O)/C=C(\[O-])c1ccccc1.[La+3].[La+3] | > 50 µM | > 50 µM | > 50 µM | > 50 µM |  | > 50 µM |  | > 50 µM | > 50 µM | > 50 µM | > 50 µM | > 50 µM | > 50 µM |  | > 50 µM | > 50 µM | > 50 µM | > 50 µM | > 50 µM |  |
| CCCNC(=O)OCc1c(COC(=O)NCCC)c(-c2ccc(Cl)c(Cl)c2)n2c1CCC2 | 33.2 µM | 30.2 µM | 87.7 µM | 21.5 µM | 11.3 µM | 19.4 µM |  | 28.9 µM | 12.6 µM |  |  |  |  |  |  |  |  |  | 3.24 µM |  |
| c1ccc(-c2nnc(-c3nn(-c4ccccc4)c4nc5ccccc5nc34)o2)cc1 | > 100 µM | > 100 µM | 71.6 µM | > 100 µM | > 100 µM | > 100 µM |  | > 100 µM | > 100 µM |  |  |  |  |  |  |  |  |  |  |  |
| CCOC(=O)c1c(N)n(-c2ccccc2)c(=S)n(-c2ccccc2)c1=O | > 100 µM |  | > 100 µM | > 100 µM |  | > 100 µM | > 100 µM | > 100 µM | > 100 µM |  |  |  |  |  |  |  |  |  |  |  |
| O=C(N/N=C/c1cccc(O)c1O)N/N=C/c1cccc(O)c1O | > 100 µM | > 100 µM | 46.8 µM | > 100 µM | 36.2 µM | > 100 µM |  | > 100 µM | 36.8 µM |  |  |  |  |  |  |  |  |  | > 100 µM |  |
| COc1ccc(CNC(=O)[C@@H](C)N(C)C(=O)[C@@H]2CCCN2C(=O)[C@H](C(C)C)N(C)C(=O)[C@@H](NC(=O)[C@H](C(C)C)N(Cc2ccccc2)Cc2ccccc2)C(C)C)cc1OC (Bn2Val-V[NMeV]P[dNMeA]-{NH(3,4-diMeO-benzyl)}) | 50 µM and > 100 µM | 50 µM and 49.1 µM | 23.9 µM and 11.7 µM | 14.8 µM and > 100 µM | 16.6 µM and 17.8 µM | 17.2 µM and 22.2 µM |  | 22.1 µM and 20 µM | > 100 µM | 53.3 µM | 10.4 µM | 0.475 µM | 17.6 µM | 5.23 µM | 10 µM |  |  |  | 23.7 µM |  |
| O=C(O)c1cc(S(=O)(=O)N=NC=C2c3ccccc3N(O)c3ccccc32)ccc1O | > 100 µM | > 100 µM | 45.1 µM | 34.4 µM |  | > 100 µM |  | > 100 µM | 49.5 µM |  |  |  |  |  |  |  |  |  | 41 µM |  |
| S=C1NCCN1C1=Nc2ccccc2CO1 | > 100 µM | > 100 µM | > 100 µM | > 100 µM | > 100 µM | > 100 µM | > 100 µM | > 100 µM | > 100 µM | > 100 µM | 93.6 µM | > 100 µM | > 100 µM | > 100 µM | > 100 µM | > 100 µM | > 100 µM |  |  | > 100 µM |
